Assay [1] deals with MST enzymes (PchA, EntC, Irp9). Kind of assay: Ligand binding rates by stopped-flow intrinsic fluorescence. The conditions noted are these: all three enzymes.
Another assay concerns the target PchA, EntC, and Irp9. Kind of assay: Dissociation constants by intrinsic fluorescence. In kind it is binding. Conditions: read-out: Kd of E·Mg complexes (range over all three enzymes).
Another assay addresses T1, EntC (Escherichia coli, UniProt P0AEJ2).
T1 sequence (P0AEJ2 1-391): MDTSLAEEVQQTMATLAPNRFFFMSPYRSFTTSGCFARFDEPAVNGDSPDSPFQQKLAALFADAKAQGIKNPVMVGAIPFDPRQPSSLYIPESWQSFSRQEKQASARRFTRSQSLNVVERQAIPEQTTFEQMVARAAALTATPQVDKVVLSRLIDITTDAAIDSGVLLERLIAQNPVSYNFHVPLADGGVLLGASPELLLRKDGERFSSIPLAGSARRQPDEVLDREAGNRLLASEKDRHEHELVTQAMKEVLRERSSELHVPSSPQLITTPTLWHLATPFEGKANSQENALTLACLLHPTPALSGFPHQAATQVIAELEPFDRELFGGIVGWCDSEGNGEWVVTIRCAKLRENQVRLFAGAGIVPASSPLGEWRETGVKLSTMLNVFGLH
Kind of assay: Steady-state chorismate isomerase activity, PchB-coupled salicylate fluorescence. Format: biochemical.

Another assay deals with Irp9 (Yersinia enterocolitica, UniProt Q9X9I8). In kind it is biochemical. The conditions noted are these: saturating chorismate 20 μM; magnesium 0–20 mM.
The target of another assay is T2, PchB (Pseudomonas aeruginosa, UniProt Q51507).
T2 sequence (Q51507 1-101): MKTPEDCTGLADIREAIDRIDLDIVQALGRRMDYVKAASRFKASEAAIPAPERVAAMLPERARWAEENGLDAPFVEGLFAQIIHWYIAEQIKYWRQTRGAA
Kind of assay: Steady-state PchB lyase activity. In kind it is biochemical.

Assay [2] addresses T3, PchA (Pseudomonas aeruginosa, UniProt Q51508).
T3 sequence (Q51508 1-476): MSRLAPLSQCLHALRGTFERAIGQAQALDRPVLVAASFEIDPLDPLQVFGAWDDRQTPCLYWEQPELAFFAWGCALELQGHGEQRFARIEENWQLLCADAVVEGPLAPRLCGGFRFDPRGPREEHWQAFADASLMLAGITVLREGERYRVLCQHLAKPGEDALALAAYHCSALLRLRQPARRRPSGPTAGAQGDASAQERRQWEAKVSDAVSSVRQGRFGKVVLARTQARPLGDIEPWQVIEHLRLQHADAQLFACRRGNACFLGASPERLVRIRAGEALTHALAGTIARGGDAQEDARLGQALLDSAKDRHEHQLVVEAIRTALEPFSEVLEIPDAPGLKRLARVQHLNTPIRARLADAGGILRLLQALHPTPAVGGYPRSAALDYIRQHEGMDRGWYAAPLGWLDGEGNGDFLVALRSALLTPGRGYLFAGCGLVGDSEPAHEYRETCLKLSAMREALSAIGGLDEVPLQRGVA
Format: biochemical.

For assay [3], the target named is T3, PchA. Conditions: cited from earlier work.
Another assay deals with Fur. The conditions noted are these: read-out: Kd for Fe(II) binding; cited from earlier work.

The text below walks through data of article PMC5029964 (Journal of the American Chemical Society, 2016).

“Also recorded” adds a separate entry of the source.

In the case of `[Cl-].[Cl-].[Mg+2]` [magnesium, magnesium chloride], in assay [1] (binding complete within stopped-flow dead time, 25 °C), the “observed rate constant of ligand binding (bound from ∼1.0 ms dead time)” value is “greater than 1600 s^–1”. In addition, in assay [1] (suggested from dead-time bound), the “association rate constants (order of magnitude)” value was ~10^8 M^–1 s^–1. Moreover, the dissociation constant Kd on PchA, EntC, and Irp9 is 130 to 190 µM. In addition, the “magnesium concentration at which maximal velocity was observed” value on EntC (saturating chorismate 200 μM, magnesium 0–20 mM) was “approximately 0.5 mM”; at PchA [2], “approximately 0.5 mM”. For the same molecule, the “magnesium concentrations at which inhibition is noted” value at EntC (steady state) and at PchA [2] (steady state) was “over 0.5 mM” each time. The “magnesium inhibition in the steady state (shape of magnesium dependence)” value on Irp9 is “normal hyperbolic shape; also recorded: did not exhibit the same inhibition”. The “binding of and inhibition by magnesium” value at PchB was “does not bind and is not inhibited”.

Consider `N[C@@H](CS)C(=O)O` [cysteine], for which the “feedback inhibition of PchA” value on PchA [3] is “no inhibition”.

Turning to `O=S(=O)([O-])[O-].O=S(=O)([O-])[O-].[Fe+2].[NH4+].[NH4+]` [Fe(II), ferrous ammonium sulfate], the “effect on PchA activity” value on PchA [3] (100 μM) is “did not alter PchA activity”. Besides, on Fur, the dissociation constant (Kd) was 1.2 µM.

For `CN1[C@@H]([C@H]2CSC(c3ccccc3O)=N2)SC[C@H]1C(=O)O` [pyochelin], the “feedback inhibition of PchA” value at PchA [3] is reported as “no inhibition”.
